{"source": "patent US9290464B2", "about": "(priority 2010, dated 2016)", "key": {"MPTP-induced monkey": {"tested_on": "MPTP-induced monkey", "test": "Parkinson's disease score in MPTP-induced monkey", "type": "in vivo, Macaque monkeys", "settings": "1 mg/kg oral for 4 weeks after MPTP; compared with group given 1 mg/kg rasagiline; FIG. 1", "method": "Macaque monkeys (n=35, 3 to 4-year-old) were used as an experimental model. The macaque monkeys were divided into three groups, and 0.2 mg/kg of MPTP was administered to each group (once a day, every day, until Parkinson's disease score reaches 8 or for 14 days) via intravenous injection. […] In addition, to confirm the effect of […] as a dopamine agonist, dopamine transporters existing in medial striatum and caudal striatum taken from the MPTP-induced monkey model were subjected to a dopamine transporter binding assay.\nThe extent of Parkinson's disease was measured by analyzing videotaped behaviors of each group of monkeys, based on four standards: a) range of movement, b) hypokinesia, c) extent of abnormal posture, and d) tremor. A Parkinson's disease score was evaluated by the sum of (4-range of movement)+hypokinesia+extent of abnormal posture+tremor. […] The Parkinson's disease score was measured for 10 minutes every 30 minutes through 2 hours. That is, the maximum value of the highest Parkinson's disease score is 40. Meanwhile, the measurement method performed based on the four standards was as follows, and evaluated scores below represent representative behaviors observed through observation periods: […]"}, "MPTP-induced mouse": {"tested_on": "MPTP-induced mouse", "test": "Tail suspension test in MPTP-induced mouse", "type": "in vivo, C57BL/6 mice", "settings": "FIG. 3", "method": "The tail suspension test was performed to measure the extent of causation of behavioral loss according to the administration of MPTP and medicines. The TST was performed in such a manner that 7 days after the compounds described above are respectively administered to the three groups, a circular stainless steel stick with a width of 1 cm was fixed to a cage with a width of 16 cm and a height of 40 cm located at a height of 35 cm and whose left and right sides were covered by black wood. The movement time of the mice was measured for 6 minutes in a second unit, and thus the efficacies of the compounds were evaluated."}, "6-OHDA-induced rat": {"tested_on": "6-OHDA-induced rat", "test": "Decrease in neurons of substantia nigra pars compacta in 6-OHDA-induced rat (TH immunohistochemistry and cresyl violet staining)", "type": "in vivo, Wistar rats", "settings": "FIG. 6", "method": "Wistar rats provided by ORIENT BIO INC. (excipient and CBI n=7, rasagiline n=6; 6-week-old; 20 male rats) were used as an experimental model. One-side injection of 3 μl of a solution containing 20 μg/μl of 6-OHDA was performed on the striatum of each rat (position: front—1.0 mm, rear—3.0 mm, postabdomen side—5.0 mm), thereby inducing the degeneration of neurons in the striatum. […] 4, 5 and 6 weeks after the last day of administration, an apomorphine-induced rotation test was performed on each group. The apomorphine-induced rotation test was performed in such a manner that 0.5 mg/kg of apomorphine was administered to each group of rats via intraperitoneal injection, each group of rats was placed in a rotor chamber, and the rotary movement thereof was recorded for 45 minutes, and thus the number of rotation per minute of each group of rats was measured to determine the average value thereof. In addition, after the apomorphine-induced rotation test performed 6 weeks after the last day of administration, each group of rats was sacrificed, and thus the extent of a decrease in neurons of substantia nigra pars compacta was confirmed using immunohistochemistry staining using an antibody against tyrosine hydroxylase and cresyl violet staining."}, "[1]": {"tested_on": "MAO-B-deficient human neuroblastoma SH-SY5Y cells", "test": "Apoptosis induced by serum starvation in neuroblastoma cells", "type": "cell-based", "settings": "serum-free medium, FIG. 9", "method": "In this embodiment, MAO-B-deficient human neuroblastoma SH-SY5Y cells (Korean Cell Line Bank) were used. Apoptosis of the human neuroblastoma cells was induced by serum starvation. The MAO-B-deficient human neuroblastoma SH-SY5Y cells cultured in a normal medium were distributed into a 6-well plate at a concentration of 1.8×10^5 cells/well and incubated for 1 day, the medium was exchanged with a serum-free medium containing CBI (0.1, 1 and 10), a serum-free medium containing rasagiline (0.1, 1 and 10), or a serum-free medium containing neither CBI or rasagiline, and the cell was further incubated in 5% CO2 at 37° C. for 48 hours."}, "NGF": {"tested_on": "NGF", "test": "Amount of NGF mRNA in striatum of mouse without neurotoxin", "type": "in vivo, C57BL/6 mice", "settings": "1 mg/kg oral once a day for 8 days each; FIG. 15", "description": "Next day after the last day of administration, striatum and substantia nigra tissues were taken out of each group of mice. mRNA was extracted from the cell of the taken tissue, and thus the amount of mRNA of NGF was measured by real-time RT-PCR."}, "[2]": {"tested_on": "MAO-B-deficient human neuroblastoma SH-SY5Y cells", "test": "Transmembrane potential of mitochondria (MitoPT kit) in MPP+-treated cells", "type": "cell-based", "settings": "2 mM MPP+, 24 hours, FIG. 16", "method": "In this embodiment, MAO-B-deficient human neuroblastoma SH-SY5Y cells (Korean Cell Line Bank) were used. The cells were incubated in a DMEM medium in 5% of CO2 at 37° C. for 24 hours. The cultured cells were divided into five groups, 2 mM of 1-methyl-4-phenyl-pyridium (MPP^+) was added to each group, three of the five groups were respectively treated with 1 nM, 10 nM and 50 nM of CBI, one of the other two groups was treated with 10 nM of rasagiline, and the CBI- or rasagiline-treated four groups were further incubated in 5% of CO2 at 37° C. for 24 hours. The group with only MPP^+ added thereto was incubated under the same conditions as describe dabove. Subsequently, according to manufacturer's protocols, the transmembrane potential of mitochondria was determined using MitoPT™ kit (Immunochemistry Technology). The transmembrane potential of mitochondria was confirmed using a fluorescent plate reader (Tecan, Austria). […] Thus, RFU values (red fluorescence value/green fluorescence value) were determined from the results, and the results are shown in FIG. 16."}, "caspase 3": {"tested_on": "caspase 3", "test": "Activity of caspase 3/7 (Apo-ONE) in MPP+-treated cells", "type": "cell-based, human", "settings": "2 mM MPP+, 24 hours; CBI 1, 5, 10 and 50 nM, rasagiline 50 nM; FIG. 18", "description": "SH-SY5Y cells were incubated in a 96-well plate at a concentration of 5×10^5 cells/well under the same conditions as described above, the cells were treated with 2 mM of MPP^+ and CBI (1, 5, 10 and 50 nM) or rasagiline (50 nM), and the resulting cells were incubated for 24 hours. Subsequently, 100 μl of Apo-ONE caspase 3/7 reagent (Promega, G7790) was added thereto and mixed therewith, and the resultant was further incubated for 4 hours. After the incubation was terminated, fluorescence was measured at an excitation wavelength of 495 nm and an emission wavelength of 521 nm by using a fluorescence plate reader (GeminiXPS, Molecular Devices)."}, "catalase": {"tested_on": "catalase", "test": "Activity of catalase in striatum and substantia nigra of mouse", "type": "in vivo, C57BL/6 mice", "settings": "1 mg/kg oral for 8 days, no neurotoxin, FIG. 22", "description": "Next day after the last day of administration, striatum and substantia nigra tissues were taken out of each group of mice. Cell extracts were obtained from the cells of the tissues, and thus the activities of the catalase, SOD and GPx were measured."}, "GPx": {"tested_on": "GPx", "test": "Activity of GPx in striatum and substantia nigra of mouse", "type": "in vivo, C57BL/6 mice", "settings": "1 mg/kg oral for 8 days, no neurotoxin, FIG. 22"}}}
{"smiles": "NC(=O)OCc1cc(-c2ccc(OCc3ccccc3)cc2)no1", "note": "[CBI, carbamic acid 3-(4-benzyloxy-phenyl)-isoxazole-5-yl methylester]", "values": [{"measurement": "extent of Parkinson's disease (Parkinson's disease score)", "setting": "MPTP-induced monkey", "result": "significantly decreased extent of Parkinson's disease"}, {"measurement": "behavioral restoration in tail suspension test compared with rasagiline group", "setting": "MPTP-induced mouse; 1 mg/kg oral each", "result": "excellent capability of behavioral restoration"}, {"measurement": "behaviors in tail suspension test", "setting": "MPTP-induced mouse; 1 mg/kg oral once a day after MPTP 30 mg/kg i.p. x 4 days", "result": "the same extent of behaviors as those of normal mice"}, {"measurement": "effect on decrease in neurons compared with rasagiline group", "setting": "6-OHDA-induced rat; 1 mg/kg oral each", "result": "superior effect"}, {"measurement": "extent of a decrease in neurons of substantia nigra pars compacta", "setting": "6-OHDA-induced rat; 1 mg/kg oral, 1 hour before 6-OHDA and once every other day for 6 weeks", "result": "significantly decreased extent of a decrease in neurons"}, {"measurement": "higher extent of a decrease in the apoptosis of neurons than with 10 of rasagiline", "setting": "[1]; 10 (unit not given), 48 hours", "result": "about 33%"}, {"measurement": "extent of the apoptosis of neurons", "setting": "[1]; 48 hours, 0.1, 1 and 10 (unit not given)", "result": "decreased"}, {"measurement": "expression of NGF in the striatum compared with rasagiline group", "setting": "NGF", "result": "significantly higher"}, {"measurement": "transmembrane potential of mitochondria", "setting": "[2]; 1 nM, 10 nM and 50 nM", "result": "stabilized concentration-dependently"}, {"measurement": "stability effect of the transmembrane potential of mitochondria relative to same concentration of rasagiline", "setting": "[2]; rasagiline 10 nM", "result": "no less than 2 times"}, {"measurement": "activity of caspase 3", "setting": "caspase 3", "result": "reduced"}, {"measurement": "increase of the activity of the catalase in the striatum", "setting": "catalase", "result": "about 13%"}, {"measurement": "increase of the activity of the GPx in substantia nigra", "setting": "GPx", "result": "about 28%"}]}
